This is an account of results in ChEMBL document CHEMBL1201862, “PubChem BioAssay data set” (2004).

Among the test systems are CCRF-CEM; A498; K562; HCT-15; HOP-92; RPMI-8226; SF-539; SK-MEL-2; HT-29; IGROV-1; COLO 205; SK-MEL-5; SR; SNB-19; SK-MEL-28; UACC-62; RXF 393; ACHN; PC-3.
Common to all, as to test: NCI-60 cell line screen, 48 h

Each structure is given as a SMILES string.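 Assay format: 96-well plates, 48-hour exposure. GI50 = concentration required for 50% inhibition of growth.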 Activity calls are given as the source filed them. No stated cut-off is given here; in the data, active = GI50 up to about 1.1 µM and inactive = higher. Where only a bound is given, the exact number is not on record here.

Take `Cc1ccc(Oc2ccc(C)cc2N)cc1`: the GI50 in the experiment on CCRF-CEM was 41.6 µM (inactive); with A498, > 100 µM (inactive); in the experiment on K562, 60.8 µM (inactive); with HCT-15 it was 48.5 µM; in the experiment with HOP-92, 32.3 µM (inactive); in the experiment on RPMI-8226, 97.9 µM (inactive). Besides, the GI50 is > 100 µM (inactive) in the experiment with SF-539; > 100 µM (inactive) in the experiment on SK-MEL-2; 52.5 µM (inactive) in the experiment with HT-29; > 100 µM (inactive) in the experiment on IGROV-1; > 100 µM (inactive) in the experiment on COLO 205; 44.1 µM (inactive) in the experiment with SK-MEL-5. Further, the GI50 was 57.9 µM (inactive) in the experiment on SR; > 100 µM (inactive) in the experiment on SNB-19; > 100 µM (inactive) in the experiment on SK-MEL-28; > 100 µM (inactive) in the experiment with UACC-62; 31.5 µM (inactive) with RXF 393.

With `CCC1CN2CCc3c([nH]c4ccccc34)C2C[C@@H]1CC(=O)N(C)C` (stereo partly specified), the GI50 is > 100 µM (inactive) in the experiment with CCRF-CEM; > 100 µM (inactive) in the experiment on A498; > 100 µM (inactive) with K562; greater than 100 µM with HCT-15; 51.6 µM (inactive) in the experiment on HOP-92; > 100 µM (inactive) in the experiment on SF-539. Further, the GI50 in the experiment with ACHN, with SK-MEL-2, with HT-29, with IGROV-1, in the experiment on COLO 205 and in the experiment with SK-MEL-5 was > 100 µM (inactive) each time. For the same compound, the GI50 with SR is 78.7 µM (inactive); in the experiment on SNB-19, > 100 µM (inactive); with SK-MEL-28, > 100 µM (inactive); in the experiment with RXF 393 it was > 100 µM (inactive).

For the compound `COC(=O)C(=O)C(C(C)=O)C(=O)NCc1ccccc1` (stereo unspecified), the GI50 was 83.2 µM (inactive) in the experiment with CCRF-CEM; > 100 µM (inactive) in the experiment with A498; > 100 µM (inactive) in the experiment on K562; greater than 100 µM in the experiment with HCT-15; > 100 µM (inactive) with HOP-92; > 100 µM (inactive) in the experiment on RPMI-8226. In addition, the GI50 with SF-539, in the experiment on ACHN, with SK-MEL-2, in the experiment with HT-29, in the experiment on IGROV-1 and in the experiment with COLO 205 was > 100 µM (inactive) throughout. The GI50 with SK-MEL-5, in the experiment on SR, in the experiment with SNB-19, in the experiment on SK-MEL-28, in the experiment with UACC-62 and in the experiment on RXF 393 was > 100 µM (inactive) in each case.

As to `N#CC1(C#N)C(C#N)(C#N)C12CCCCCC2`, the GI50 in the experiment on CCRF-CEM is 1.85 µM (inactive); with A498, 18.5 µM (inactive); with K562 it was 3.1 µM (inactive); in the experiment with HCT-15, 8.41 µM; with HOP-92, 15.4 µM (inactive); in the experiment on RPMI-8226, 3.28 µM (inactive). In addition, the GI50 in the experiment on SF-539 is 13.6 µM (inactive); in the experiment on ACHN it was 11.1 µM (inactive); with SK-MEL-2 it was 13.2 µM (inactive); in the experiment with HT-29, 17.2 µM (inactive); in the experiment on IGROV-1, 40.2 µM (inactive); in the experiment on COLO 205 it was 15.7 µM (inactive). Besides, the GI50 with SK-MEL-5 was 18 µM (inactive); with SR, 22.1 µM (inactive); in the experiment with SNB-19 it was 29.4 µM (inactive); in the experiment on SK-MEL-28, 8.57 µM (inactive); in the experiment on UACC-62, 12.9 µM (inactive); in the experiment with RXF 393 it was 10.4 µM (inactive).

In the case of `COc1ccc2oc3c4c2c1CCC4CCC3=O` (stereo unspecified), the GI50 is > 100 µM (inactive) with CCRF-CEM; 6.75 µM (inactive) in the experiment on A498; > 100 µM (inactive) in the experiment with K562; 55.7 µM (inactive) in the experiment with HOP-92; > 100 µM (inactive) in the experiment on RPMI-8226; > 100 µM (inactive) in the experiment with SF-539. The GI50 in the experiment with ACHN, in the experiment on SK-MEL-2, in the experiment with HT-29, in the experiment on IGROV-1, in the experiment on COLO 205 and with SK-MEL-5 was > 100 µM (inactive) throughout. Further, the GI50 in the experiment with SR was > 100 µM (inactive); in the experiment on SNB-19, > 100 µM (inactive); with SK-MEL-28, > 100 µM (inactive); in the experiment on UACC-62 it was > 100 µM (inactive); with RXF 393, 36.1 µM (inactive).

On to `Cc1cc(Cl)ccc1NC(=O)C(=O)Cc1occc(=O)c1O`, for which the GI50 with CCRF-CEM was > 100 µM (inactive); in the experiment on A498 it was > 100 µM (inactive); with K562 it was > 100 µM (inactive); in the experiment on HCT-15 it was greater than 100 µM; in the experiment on HOP-92, > 100 µM (inactive); in the experiment with RPMI-8226, > 100 µM (inactive). Besides, the GI50 with SF-539, with ACHN, in the experiment on SK-MEL-2, with HT-29, in the experiment on IGROV-1 and in the experiment on COLO 205 was > 100 µM (inactive) in each case. The GI50 in the experiment with SK-MEL-5, in the experiment with SR, in the experiment with SNB-19, in the experiment with SK-MEL-28, in the experiment on UACC-62 and in the experiment with RXF 393 was > 100 µM (inactive) each time.

`COc1ccc(/C=C\c2cc(OC)c3c(c2)OCO3)c(O)c1O`: the GI50 in the experiment with CCRF-CEM was 2.98 µM (inactive); in the experiment with A498, 8.3 µM (inactive); with K562 it was 4.14 µM (inactive); in the experiment on HCT-15, 11 µM; in the experiment with HOP-92, 5.55 µM (inactive); in the experiment on RPMI-8226, 2.56 µM (inactive). Besides, the GI50 was 2.08 µM (inactive) in the experiment on SF-539; 11.2 µM (inactive) in the experiment on ACHN; 8.53 µM (inactive) in the experiment with SK-MEL-2; 20.7 µM (inactive) in the experiment with HT-29; 4.71 µM (inactive) in the experiment on IGROV-1; 21.2 µM (inactive) in the experiment on COLO 205. Moreover, the GI50 in the experiment with SK-MEL-5 was 2.3 µM (inactive); with SR it was 3.78 µM (inactive); in the experiment with SNB-19, 4.74 µM (inactive); in the experiment with SK-MEL-28 it was 5.65 µM (inactive); in the experiment with UACC-62 it was 3.33 µM (inactive); in the experiment with RXF 393, 3.94 µM (inactive).

As for `CCCN1CC=CCC1`, the GI50 is 2.09 µM (inactive) in the experiment on CCRF-CEM; > 100 µM (inactive) with A498; < 0.01 µM (active) in the experiment on K562; greater than 100 µM in the experiment on HCT-15; > 100 µM (inactive) in the experiment with HOP-92; > 100 µM (inactive) in the experiment with RPMI-8226. Besides, the GI50 with SF-539, in the experiment on ACHN, in the experiment with SK-MEL-2, in the experiment on HT-29, with IGROV-1 and in the experiment on COLO 205 was > 100 µM (inactive) each time. The GI50 in the experiment with SK-MEL-5, with SR, in the experiment with SNB-19, in the experiment on SK-MEL-28, in the experiment on UACC-62 and in the experiment with RXF 393 was > 100 µM (inactive) in each case.

As for `CCCC[S+]([O-])CCC(N)C(=O)O` (stereo unspecified), the GI50 with CCRF-CEM is > 100 µM (inactive); in the experiment with A498, > 100 µM (inactive); in the experiment on K562, > 100 µM (inactive); with HCT-15, greater than 100 µM; with SF-539, > 100 µM (inactive); in the experiment on ACHN, > 100 µM (inactive). Moreover, the GI50 in the experiment with HT-29, in the experiment on IGROV-1, in the experiment on PC-3, with COLO 205, in the experiment on SK-MEL-5 and in the experiment on SR was > 100 µM (inactive) throughout. Besides, the GI50 in the experiment on SNB-19, in the experiment with SK-MEL-28, in the experiment with UACC-62 and in the experiment with RXF 393 was > 100 µM (inactive) in each case.
